Reference: PubChem BioAssay (NCI)
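GI50 is the concentration that inhibits growth by half. TGI is the concentration that stops growth completely.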

Assays:
Assay in all cases: NCI tumour cell line growth inhibition, 384-well format
[1] = system: SF-268 CNS
[2] = system: MALME-3M melanoma
[3] = system: DU-145 prostate
[4] = system: HT29 colon
[5] = system: MDA-MB-468 breast
[6] = system: UACC-62 melanoma
[7] = system: SK-MEL-28 melanoma
[8] = system: SF-295 CNS
[9] = system: UACC-257 melanoma
[10] = system: OVCAR-4 ovarian
[11] = system: HOP-92 NSCLC
[12] = system: MOLT-4 leukemia
[13] = system: CCRF-CEM leukemia
[14] = system: HCT-15 colon
[15] = system: KM12 colon
[16] = system: SF-539 CNS
[17] = system: SW-620 colon
[18] = system: SK-MEL-5 melanoma
[19] = system: OVCAR-8 ovarian
[20] = system: OVCAR-3 ovarian
[21] = system: K-562 leukemia
[22] = system: PC-3 prostate
[23] = system: HL-60(TB) leukemia
[24] = system: A549 NSCLC
[25] = system: RXF 393 renal
[26] = system: NCI-H23 lung
[27] = system: EKVX NSCLC
[28] = system: SN12C renal
[29] = system: HCC-2998 colon
[30] = system: NCI-H322M lung
[31] = system: BT-549 breast
[32] = system: HS 578T breast
[33] = system: SNB-75 CNS
[34] = system: T-47D breast
[35] = system: IGROV1 ovarian
[36] = system: RPMI-8226 leukemia
[37] = system: U251 glioblastoma
[38] = system: M14 melanoma
[39] = system: NCI-H522 lung
[40] = system: SNB-19 CNS
[41] = system: CAKI-1 renal
[42] = system: HOP-62 NSCLC
[43] = system: A498 renal

COc1cc(F)ccc1-c1cc(Nc2cc(CS(C)(=N)=O)ccn2)ncc1F (stereo unspecified)
GI50 [1]: 17.1 nM
TGI [1]: 44.5 nM
GI50 [2]: 50.3 nM
TGI [2]: 178 nM
GI50 [3]: 29.1 nM
TGI [3]: 92.5 nM
GI50 [4]: 65.1 nM
TGI [4]: 257 nM
GI50 [5]: 58.7 nM
TGI [5]: 193 nM
GI50 [6]: 17.1 nM
TGI [6]: 49.2 nM
GI50 [7]: 30.4 nM
TGI [7]: 167 nM
GI50 [8]: 35.3 nM
TGI [8]: 180 nM
GI50 [9]: 104 nM
TGI [9]: 251 nM
GI50 [10]: 165 nM
TGI [10]: 889 nM
GI50 [11]: 62.9 nM
TGI [11]: 46000 nM
GI50 [12]: 27.3 nM
TGI [12]: 89.1 nM
GI50 [13]: 17.6 nM
TGI [13]: 36.2 nM
GI50 [14]: 38.7 nM
TGI [14]: > 100000 nM
GI50 [15]: 23.7 nM
TGI [15]: 73.5 nM
GI50 [16]: 26.3 nM
TGI [16]: 69 nM
GI50 [17]: 43.7 nM
TGI [17]: 475 nM
GI50 [18]: 28.3 nM
TGI [18]: 109 nM
GI50 [19]: 30.5 nM
TGI [19]: 112 nM
GI50 [20]: 24.2 nM
TGI [20]: 80.1 nM
GI50 [21]: 136 nM
TGI [21]: 567 nM
GI50 [22]: 39.9 nM
TGI [22]: 250 nM
GI50 [23]: 15.4 nM
TGI [23]: 29.4 nM
GI50 [24]: 42.9 nM
TGI [24]: > 100000 nM
GI50 [25]: 16 nM
TGI [25]: 37.6 nM
GI50 [26]: 30.4 nM
TGI [26]: 130 nM
GI50 [27]: 73.9 nM
TGI [27]: 498 nM
GI50 [28]: 23.3 nM
TGI [28]: 121 nM
GI50 [29]: 37.9 nM
TGI [29]: 207 nM
GI50 [30]: 29.2 nM
TGI [30]: 134 nM
GI50 [31]: 26.2 nM
TGI [31]: 74 nM
GI50 [32]: 15.5 nM
TGI [32]: 41.6 nM
GI50 [33]: 50.9 nM
TGI [33]: 201 nM
GI50 [34]: 46.2 nM
TGI [34]: > 100000 nM
GI50 [35]: 33.7 nM
TGI [35]: > 100000 nM
GI50 [36]: 41 nM
TGI [36]: 138 nM
GI50 [37]: 43.3 nM
TGI [37]: > 100000 nM
GI50 [38]: 34.7 nM
TGI [38]: 157 nM
GI50 [39]: 149 nM
TGI [39]: 385 nM
GI50 [40]: 44.6 nM
TGI [40]: > 100000 nM
GI50 [41]: 28.2 nM
TGI [41]: > 100000 nM
GI50 [42]: 18.3 nM
TGI [42]: 45.5 nM
GI50 [43]: 27 nM
TGI [43]: > 100000 nM
